This note sets out measurements from ChEMBL document CHEMBL4715734, “Discovery of the Potent and Selective M1 PAM-Agonist N-[(3R,4S)-3-Hydroxytetrahydro-2H-pyran-4-yl]-5-methyl-4-[4-(1,3-thiazol-4-yl)benzyl]pyridine-2-carboxamide (PF-06767832): Evaluation of Efficacy and Cholinergic Side Effects” (J Med Chem, 2016).

Data set [1] addresses T1, Muscarinic acetylcholine receptor M1 (Homo sapiens, UniProt P11229).
T1 sequence (P11229 whole entry): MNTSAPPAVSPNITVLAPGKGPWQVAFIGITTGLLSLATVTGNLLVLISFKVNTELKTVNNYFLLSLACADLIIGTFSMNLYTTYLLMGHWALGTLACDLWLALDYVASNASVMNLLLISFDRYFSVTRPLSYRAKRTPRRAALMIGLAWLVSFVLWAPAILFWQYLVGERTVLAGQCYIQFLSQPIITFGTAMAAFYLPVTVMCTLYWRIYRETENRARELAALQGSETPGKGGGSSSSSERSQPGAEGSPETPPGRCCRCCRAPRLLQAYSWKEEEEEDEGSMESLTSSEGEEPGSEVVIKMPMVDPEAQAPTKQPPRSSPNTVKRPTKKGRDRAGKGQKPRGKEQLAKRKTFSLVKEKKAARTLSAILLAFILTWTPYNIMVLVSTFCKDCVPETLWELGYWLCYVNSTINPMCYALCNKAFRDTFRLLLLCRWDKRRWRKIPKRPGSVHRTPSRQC
Nature of the data set: Positive allosteric modulation of human muscarinic M1 receptor stably expressed in CHO cells assessed as increase in Ach-induced intracellular calcium level preincubated for 10 mins followed by addition of Ach at EC20 concentration by Fluo-8AM dye based FLIPR TETRA method. It is filed as functional, cell-based. In general terms: Calcium flux is commonly read through the fluorescence of an indicator in the cells.

The subject of a further data set is MDR1 (P-gp). Description: Efflux ratio of permeability across basolateral to apical side over apical to basolateral side in dog MDCK-MDR1 cells. It is filed as ADME, cell-based, Canis lupus familiaris.
A short description of data set [2]: Permeability of compound in MDCKII-LE cells. As to conditions: dog, MDCK; read-out: permeability. The format is ADME, cell-based, Canis lupus familiaris.
Data set [3] in a line: Intrinsic clearance in human liver microsome. It is filed as ADME. Particulars: liver microsomes, read-out: CLH.
Data set [4] can be described thus: Ratio of AUC in mouse brain to plasma. It is filed as ADME, cell-free. As to conditions: brain and plasma, read-out: Ratio AUC.
Data set [5] can be described thus: Ratio of fAUC in C57BL/6 mouse brain to plasma. The format is ADME, cell-free. As to conditions: brain and plasma, read-out: Ratio AUC.
Data set [6] can be described thus: Fraction unbound in C57BL/6 mouse plasma. It is filed as ADME, cell-free.
Data set [7] can be described thus: Fraction unbound in rat brain. The format is ADME, cell-free.
A short description of data set [8]: Ratio of AUC in C57BL/6 mouse brain to plasma at 1 mg/kg, sc. The format is ADME, organism-based. As to conditions: brain and plasma, read-out: Ratio AUC.

Take `Cc1cc(F)c(C(=O)N[C@H]2CCOC[C@@H]2O)cc1Cc1ccc(-n2cccn2)cc1`: in data set [1], the 50% effective concentration (EC50) (as a rule, the midpoint of the concentration-response curve) stood at 115 nM. The efflux ratio (commonly the permeability from basolateral to apical divided by that in the opposite direction, in the common usage) in the data set on MDR1 (P-gp) is 1.5. Also, the Papp in data set [2] turned out to be 20 ×10⁻⁶ cm/s. Besides, in data set [3], the CLint scaled was less than 10 mL/min/kg.
The matching figures for `Cc1ccc(C(=O)N[C@H]2CCOC[C@@H]2O)cc1Cc1ccc(-n2cccn2)cc1`: 208 nM, 2.2, 16 ×10⁻⁶ cm/s and less than 8 mL/min/kg.
As to `Cc1cnc(C(=O)N[C@H]2CCCC[C@@H]2O)cc1Cc1ccc(-n2cccn2)cc1` (single isomer, unassigned), the efflux ratio in the data set with MDR1 (P-gp) was 1.5. The Papp in [2] stood at 19 ×10⁻⁶ cm/s. Further, in [3], the CLint scaled was 20 mL/min/kg.
As to `Cc1c(Cc2ccc(-n3cccn3)cc2)cc(C(=O)N[C@H]2CCOC[C@@H]2O)c(=O)n1C`, in data set [1], the EC50 amounted to 20 nM. Further, in the data set on MDR1 (P-gp), the efflux ratio was more than 5.3. In addition, the Papp in [2] was found to be 20 ×10⁻⁶ cm/s. Also, the CLint scaled in data set [3] is less than 8 mL/min/kg.
Take `Cc1cnc(C(=O)N[C@H]2CCOC[C@@H]2O)cc1Cc1ccc(-c2cocn2)cc1`: the efflux ratio in the data set on MDR1 (P-gp) was found to be 1.2. In data set [2], the Papp worked out at 32 ×10⁻⁶ cm/s. Besides, the CLint scaled in [3] is less than 8 mL/min/kg.
Regarding `CO[C@@H]1CCN(c2ccc(Cc3cc(C(=O)N[C@H]4CCCC[C@@H]4O)c(=O)n(C)c3C)cc2)C1`, the EC50 in [1] was determined as 1690 nM. The efflux ratio with MDR1 (P-gp) was determined as 2.2. Also, the Papp in data set [2] is 23 ×10⁻⁶ cm/s. The CLint scaled in [3] was 22 mL/min/kg.
For the compound `Cc1c(Cc2ccc(-c3ccn(C)n3)cc2)cc(C(=O)N[C@H]2CCCC[C@@H]2O)c(=O)n1C`, in data set [1], the concentration for a half-maximal effect (EC50) stood at 102 nM. For the same compound, the efflux ratio with MDR1 (P-gp) was 3.1. Further, the Papp in [2] came out at 13 ×10⁻⁶ cm/s. Moreover, the CLint scaled in data set [3] is 13 mL/min/kg.
The matching figures for `Cc1cc(N)c(C(=O)N[C@H]2CCOC[C@@H]2O)cc1Cc1ccc(-n2cccn2)cc1` (racemic): more than 9000 nM, 1.9, 19 ×10⁻⁶ cm/s and 23 mL/min/kg.
In the case of `Cc1c(Cc2ccc(-c3cocn3)cc2)cc(C(=O)N[C@H]2CCCC[C@@H]2O)c(=O)n1C`, the Kp in data set [4] was found to be 0.03. Also, the EC50 in data set [1] was 38 nM. Also, the efflux ratio in the data set on MDR1 (P-gp) was found to be 2.4. For the same compound, in data set [2], the Papp came to 26 ×10⁻⁶ cm/s. In addition, the CLint scaled in data set [3] is 17 mL/min/kg.
`O=C(N[C@H]1CCOC[C@@H]1O)c1cc(Cc2ccc(-n3cccn3)cc2)ccn1`: the EC50 in data set [1] was more than 9000 nM. In addition, in the data set on MDR1 (P-gp), the efflux ratio was 1.8. In addition, in [2], the Papp stood at 24 ×10⁻⁶ cm/s. The CLint scaled in data set [3] was less than 8 mL/min/kg.
On to `Cc1c(Cc2ccc(-c3cscn3)cc2)cc(C(=O)N[C@H]2CCCC[C@@H]2O)c(=O)n1C`, for which, in data set [1], the EC50 came to 166 nM. Besides, the efflux ratio in the data set on MDR1 (P-gp) turned out to be 2.4. In data set [2], the Papp worked out at 17 ×10⁻⁶ cm/s. Further, the CLint scaled in [3] is 26 mL/min/kg.
The matching figures for `Cc1ncc(C(=O)N[C@H]2CCOC[C@@H]2O)cc1Cc1ccc(-n2cccn2)cc1`: 392 nM, 6.3, 8 ×10⁻⁶ cm/s and less than 8 mL/min/kg.
For `Cc1cnc(C(=O)N[C@H]2CCOC[C@@H]2O)cc1Cc1ccc(-n2cccn2)cc1`, the Kp uu in data set [5] was 0.23. The Fu in data set [6] was 7.4%; in [7], 9%. In the data set on MDR1 (P-gp), the efflux ratio amounted to 1.4. Further, the Papp in [2] came out at 21 ×10⁻⁶ cm/s. Besides, the CLint scaled in [3] is less than 8 mL/min/kg. In addition, the Kp in data set [8] stood at 0.2.
For the compound `Cc1c(Cc2ccc(-n3cccn3)cc2)cc(C(=O)N[C@H]2CCCC[C@@H]2O)c(=O)n1C`, the Kp in data set [4] turned out to be 0.05. In addition, in data set [1], the EC50 stood at 29 nM. Moreover, the efflux ratio in the data set with MDR1 (P-gp) came out at 2.7. In addition, the Papp in data set [2] is 23 ×10⁻⁶ cm/s. Further, in [3], the CLint scaled was found to be 20 mL/min/kg.
